In the assay the target is T1, JAK1 (Homo sapiens, UniProt P23458).
T1 construct: purchased Thermo Fisher Scientific
In words: Z'-LYTE JAK1 kinase screen (Thermo Fisher Scientific). Particulars: 1% DMSO, ATP at Km apparent; for inhibition at 0.01 µM: test compound 10 nM; for inhibition at 0.1 µM: test compound 100 nM; for % Inhibition 1000 nm: test compound 1000 nm (so in the source). It is filed as biochemical. On the procedure: The example compounds were screened for Jak1 activity at Thermo Fisher Scientific, using their Z′-Lyte™ protocol, as described below. Selectivity screening against other kinases can be performed following similar procedures. Z′-LYTE Assay Conditions: The Test Compounds are screened in 1% DMSO (final) in the well. Three screening concentrations (10, 100, and 1000 nM) of test compounds were used. Peptide/Kinase Mixtures: All Peptide/Kinase Mixtures are diluted to a 2× working concentration in the appropriate Kinase Buffer (For JAK1, the 2×JAK1/Tyr 06 mixture is prepared in 50 mM HEPES pH 6.5, 0.01% BRIJ-35, 10 mM MgCl2, 1 mM EGTA, 0.02% NaN3. The final 10 μL Kinase Reaction consists of 21.2-91.5 ng JAK1 and 2 μM Tyr 06 in 50 mM HEPES pH 7.0, 0.01% BRIJ-35, 10 mM MgCl2, 1 mM EGTA, 0.01% NaN3. After the 1 hour Kinase Reaction incubation, 5 μL of a 1:128 dilution of Development Reagent A is added). ATP Solution: All ATP Solutions are diluted to a 4× working concentration in Kinase Buffer (50 mM HEPES pH 7.5, 0.01% BRIJ-35, 10 mM MgCl2, 1 mM EGTA). ATP: Km apparent is previously determined using a Z′-LYTE assay. 10× Novel PKC Lipid Mix: 2 mg/ml Phosphatidyl Serine, 0.2 mg/ml DAG in 20 mM HEPES, pH 7.4, 0.3% CHAPS. For 5 mL 10× Novel PKC Lipid Mix: • 1. Add 10 mgs Phosphatidyl Serine (Avanti Polar Lipids Part #8400032C or 840039C) and 1 mg DAG (Avanti Polar Lipids Part #800811C) to a glass tube. • 2. Remove the chloroform from lipid mixture by evaporating to a clear, thin film under a stream of nitrogen. Continuous rotation of the tube, at an angle to ensure maximum surface area of the lipid solution, will promote the thinnest film. • 3. Add 5 mLs resuspension buffer, 20 mM HEPES, 0.3% CHAPS, pH 7.4, to the dried lipid mix • 4. Heat gently to 50-60° C. for 1-2 minutes and vortex in short intervals until the lipids are dissolved to a clear or slightly hazy solution. The lipids are typically in solution after 2-3 heat/vortex cycles. • 5. Cool to room temperature, aliquot into single use volumes and store at −20° C. Assay Protocol Bar-coded Corning, low volume NBS, black 384-well plate (Corning Cat. #4514) • 1. 100 nL—100× Test Compound in 100% DMSO • 2. 2.4 μL—Kinase buffer • 3. 5 μL—2× Peptide/Kinase Mixture • 4. 2.5 μL—4×ATP Solution • 5. 30-second plate shake • 6. 60-minute Kinase Reaction incubation at room temperature • 7. 5 μL—Development Reagent Solution • 8. 30-second plate shake • 9. 60-minute Development Reaction incubation at room temperature • 10. Read on fluorescence plate reader and analyze the data.

SMILES strings stand for the structures.

T1 sequence (P23458 whole entry): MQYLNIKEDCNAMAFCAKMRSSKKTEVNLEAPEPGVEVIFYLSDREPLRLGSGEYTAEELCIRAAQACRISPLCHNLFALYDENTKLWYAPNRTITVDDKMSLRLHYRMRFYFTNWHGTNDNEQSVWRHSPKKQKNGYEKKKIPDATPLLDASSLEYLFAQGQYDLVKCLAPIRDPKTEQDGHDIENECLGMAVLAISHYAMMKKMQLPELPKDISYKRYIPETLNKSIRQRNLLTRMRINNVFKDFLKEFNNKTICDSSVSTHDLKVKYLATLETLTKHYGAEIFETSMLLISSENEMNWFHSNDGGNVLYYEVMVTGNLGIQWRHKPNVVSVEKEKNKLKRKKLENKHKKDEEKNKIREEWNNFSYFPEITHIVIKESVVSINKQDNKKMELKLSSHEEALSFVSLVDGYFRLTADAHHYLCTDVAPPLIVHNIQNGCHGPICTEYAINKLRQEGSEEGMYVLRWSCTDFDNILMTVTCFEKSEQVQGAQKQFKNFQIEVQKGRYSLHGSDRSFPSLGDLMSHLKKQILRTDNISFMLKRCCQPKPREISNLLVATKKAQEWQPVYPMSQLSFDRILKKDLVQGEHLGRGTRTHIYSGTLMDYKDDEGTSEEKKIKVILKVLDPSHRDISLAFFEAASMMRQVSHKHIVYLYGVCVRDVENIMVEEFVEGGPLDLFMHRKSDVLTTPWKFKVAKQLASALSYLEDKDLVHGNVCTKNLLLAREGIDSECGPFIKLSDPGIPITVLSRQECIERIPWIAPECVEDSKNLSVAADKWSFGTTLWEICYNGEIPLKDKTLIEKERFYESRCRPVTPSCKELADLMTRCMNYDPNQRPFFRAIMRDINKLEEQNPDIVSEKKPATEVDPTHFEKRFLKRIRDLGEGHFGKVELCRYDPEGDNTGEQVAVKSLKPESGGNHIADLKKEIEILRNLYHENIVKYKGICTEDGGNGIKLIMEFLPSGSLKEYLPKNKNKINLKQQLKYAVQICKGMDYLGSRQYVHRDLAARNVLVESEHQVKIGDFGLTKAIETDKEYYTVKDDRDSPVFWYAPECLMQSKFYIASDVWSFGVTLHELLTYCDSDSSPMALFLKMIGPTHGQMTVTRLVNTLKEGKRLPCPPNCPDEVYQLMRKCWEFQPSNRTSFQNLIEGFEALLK

Broadly, the inhibition is the relative decrease from the control value, in per cent. As for `CCCNS(=O)(=O)C1CC2(CC(N(C)c3ncnc4[nH]ccc34)C2)C1` (stereo not drawn) [Compound 3, 6-[methyl(7H-pyrrolo[2,3-d]pyrimidin-4-yl)amino]-N-propyl-spiro[3.3]heptane-2-sulfonamide], the inhibition at 0.01 µM turned out to be 57%, the inhibition at 0.1 µM was determined as 92% and the “% Inhibition 1000 nm” value was found to be 98%.
With `CC(C)CNS(=O)(=O)C1CC2(CC(N(C)c3ncnc4[nH]ccc34)C2)C1` (stereo not drawn) [Compound 7, N-isobutyl-6-[methyl(7H-pyrrolo[2,3-d]pyrimidin-4-yl)amino]spiro[3.3]heptane-2-sulfonamide], the inhibition at 0.01 µM was 42%, the inhibition at 0.1 µM is 88% and the “% Inhibition 1000 nm” value came out at 97%.
As to `CCNS(=O)(=O)C1CC2(CC(N(C)c3ncnc4[nH]ccc34)C2)C1` (stereo not drawn) [Compound 2, N-ethyl-6-[methyl(7H-pyrrolo[2,3-d]pyrimidin-4-yl)amino]spiro[3.3]heptane-2-sulfonamide], the inhibition at 0.01 µM worked out at 52%, the inhibition at 0.1 µM was found to be 90% and the “% Inhibition 1000 nm” value was 98%.
For the molecule `CN(c1ncnc2[nH]ccc12)C1CC2(C1)CC(S(=O)(=O)NCC(F)(F)F)C2` (stereo not drawn) [Compound 6, 6-[methyl(7H-pyrrolo[2,3-d]pyrimidin-4-yl)amino]-N-(2,2,2-trifluoroethyl)spiro[3.3]heptane-2-sulfonamide], the inhibition at 0.01 µM turned out to be 63%, the inhibition at 0.1 µM stood at 93% and the “% Inhibition 1000 nm” value was found to be 96%.
With `CN(c1ncnc2[nH]ccc12)C1CC2(CC(NS(=O)(=O)c3ccccc3Cl)C2)C1` (stereo not drawn) [Compound 12, 2-chloro-N-[2-[methyl(7H-pyrrolo[2,3-d]pyrimidin-4-yl)amino]spiro[3.3]heptan-6-yl]benzenesulfonamide], the inhibition at 0.01 µM came out at 15%, the inhibition at 0.1 µM stood at 60% and the “% Inhibition 1000 nm” value came out at 90%.
In the same order, the values of `CNS(=O)(=O)C1CC2(CC(N(C)c3ncnc4[nH]cnc34)C2)C1` (stereo not drawn) [Compound 24, N-methyl-6-[methyl(9H-purin-6-yl)amino]spiro[3.3]heptane-2-sulfonamide] are 4%, 21% and 72%.
For the molecule `CC(C)CS(=O)(=O)NC1CC2(C1)CC(N(C)c1ncnc3[nH]ccc13)C2` (stereo not drawn) [Compound 19, 2-methyl-N-[2-[methyl(7H-pyrrolo[2,3-d]pyrimidin-4-yl)amino]spiro[3.3]heptan-6-yl]propane-1-sulfonamide], the inhibition at 0.01 µM was determined as 27%, the inhibition at 0.1 µM was found to be 73% and the “% Inhibition 1000 nm” value is listed as 94%.
Regarding `CC(C)S(=O)(=O)NC1CC2(C1)CC(N(C)c1ncnc3[nH]ccc13)C2` (stereo not drawn) [Compound 18, N-[2-[methyl(7H-pyrrolo[2,3-d]pyrimidin-4-yl)amino]spiro[3.3]heptan-6-yl]propane-2-sulfonamide], the inhibition at 0.01 µM turned out to be 23%, the inhibition at 0.1 µM amounted to 71% and the “% Inhibition 1000 nm” value stood at 94%.
`CN(c1ncnc2[nH]ccc12)C1CC2(C1)CC(S(N)(=O)=O)C2` (stereo not drawn) [Compound 28, 6-[methyl(7H-pyrrolo[2,3-d]pyrimidin-4-yl)amino]spiro[3.3]heptane-2-sulfonamide]: the inhibition at 0.01 µM is 13%, the inhibition at 0.1 µM was found to be 60% and the “% Inhibition 1000 nm” value was determined as 94%.
As for `CN(c1ncnc2[nH]ccc12)C1CC2(C1)CC(S(=O)(=O)N1CCCC1)C2` (stereo not drawn) [Compound 30, N-methyl-N-(2-pyrrolidin-1-ylsulfonylspiro[3.3]heptan-6-yl)-7H-pyrrolo[2,3-d]pyrimidin-4-amine], the inhibition at 0.01 µM was 43%, the inhibition at 0.1 µM worked out at 89% and the “% Inhibition 1000 nm” value is on record as 99%.

(Values after patent US10744136B2, “Sulfonamide derivatives as JAK inhibitors” (Avista Pharma Solutions, Inc., priority 2018, dated 2020).)
